Assay [1] relates to S. epidermidis SK9. Nature of the assay: Checkerboard titration, FICI. The assay is classed as cell-based, Staphylococcus epidermidis. As to conditions: EDTA + ethanol checkerboard. Here is the method:
(§1) A fourth composition and solution included tetrasodium EDTA with ethanol or chlorhexidine HCl. This fourth composition and solution were created using checkerboard titration methods using micro broth dilution in 96-well microtiter plates. The concentrations of antimicrobials used were based on previously determined MIC values. Briefly, 200 μL of two-fold dilutions of tetrasodium EDTA and ethanol or chlorhexidine HCl were prepared in MH or MH II broth with standardized cell suspension. […] Microtiter plates were incubated at 37° C. for 24 h, and the results were analyzed. Each test was performed in duplicate and included a growth control without adding any antimicrobials.

For assay [2], the system named is 48-h old biofilms of bacterial and fungal test organisms. Nature of the assay: Rapid biofilm eradication, 2-h exposure. The assay is classed as cell-based. Conditions: each agent alone at its MBEC. On the procedure: Determining rapid biofilm eradication by tetrasodium EDTA, ethanol, and chlorhexidine HCl alone and in combination was performed. After biofilm formation, control pegs (n=6) were removed and analyzed to determine the starting biofilm cell numbers via the drop dilution method. The 48-h old biofilms on the pegs were exposed to different concentrations of test antimicrobials, dissolved in an appropriate growth medium, for two h to evaluate their efficacy alone and in combination. […] Following treatment, pegs were washed twice with sterile PBS, and the biofilm cells were dislodged into recovery medium and enumerated as described above.
The method for rapid biofilm eradication ability of test antimicrobials alone and in combination against 48-h-old biofilms within two h exposure time included (1) choosing different concentrations of test antimicrobials to assess their potency in eradicating preformed biofilms of study organisms within two h. Then (2) the quantitative recovery from biofilms following exposure to the antimicrobial solutions for bacterial strains (FIGS. 4A-4C) and fungal strains (FIG. 5) was evaluated.

The subject of assay [3] is E. coli SK2. Nature of the assay: Checkerboard titration, FICI. The assay is classed as cell-based, Escherichia coli. Conditions: EDTA + ethanol checkerboard. Here is the method: as §1
The test system of assay [4] is Stenotrophomonas maltophilia ON17. Nature of the assay: Checkerboard titration, FICI. Type of assay: cell-based. As to conditions: S. maltophilia ON17; EDTA + ethanol checkerboard. Here is the method:
as §1

In assay [5] the test system is Proteus mirabilis ON153. Nature of the assay: Checkerboard titration, FICI. Conditions: P. mirabilis ON153; EDTA + ethanol checkerboard. The assay is classed as cell-based. Here is the method:
as §1

Assay [6] has as its system Escherichia coli ON29. As to the kind of experiment: Checkerboard titration, FICI. The assay is classed as cell-based. As to conditions: E. coli ON29; EDTA + ethanol checkerboard. On the procedure: as §1
Assay [7] has as its system Candida albicans SK4b. Nature of the assay: Checkerboard titration, FICI. Type of assay: cell-based. As to conditions: C. albicans SK4b; EDTA + ethanol checkerboard. On the procedure:
as §1

Assay [8] concerns Staphylococcus epidermidis ON170. As to the kind of experiment: Checkerboard titration, FICI. As to conditions: S. epidermidis ON170; EDTA + ethanol checkerboard. Type of assay: cell-based. On the procedure:
as §1

Assay [9] has as its system Serratia marcescens SK2. Nature of the assay: Checkerboard titration, FICI. Type of assay: cell-based. Conditions: S. marcescens SK2; EDTA + ethanol checkerboard. On the procedure:
as §1

Assay [10] has as its system Staphylococcus aureus ON89. Nature of the assay: Checkerboard titration, FICI. Type of assay: cell-based. As to conditions: S. aureus ON89; EDTA + ethanol checkerboard. On the procedure:
as §1

Assay [11] deals with Pseudomonas aeruginosa SK1. As to the kind of experiment: Checkerboard titration, FICI. Type of assay: cell-based. Conditions: P. aeruginosa SK1; EDTA + ethanol checkerboard. Here is the method:
as §1

Assay [12] deals with 48-h-old biofilms of bacterial and fungal strains. As to the kind of experiment: MBEC assay, summary, 24 h exposure of 48-h-old biofilms. Type of assay: cell-based. On the procedure:
A biofilm cultivation cell composition was provided. This fifth composition was created using an MBEC Assay® biofilm inoculator, consisting of a polystyrene lid with 96 downward-protruding pegs and a corresponding base used to grow biofilms. A standardized inoculum was diluted in an appropriate biofilm growth medium to achieve a viable cell count of 1.5×10^6 CFU/mL of bacterial cells or 5×10^5 CFU/mL of fungal cells. Then, 150 μL of this inoculum was transferred into each appropriate well, and the peg lids were inserted into the microtiter plates. The plates were sealed with Parafilm and were incubated at optimum temperature for 48 h with slight rocking for bacteria and shaking at 200 rpm for fungal strains. After incubation, the peg lid was removed from the base and rinsed twice with sterile phosphate-buffered saline (PBS) for 2 min to remove loosely attached non-sessile cells. Before the antimicrobial challenge, the pegs in column 1 (n=8) were considered the biofilm growth control; these pegs were removed from the lids, placed into 200 μL of recovery medium, and analyzed for starting biofilm cell numbers as described below. […] After the antimicrobial challenge, the pegs were rinsed twice with sterile PBS for 2 min and placed into a new 96-well plate containing 200 μL of recovery medium. The recovery plates were sealed with Parafilm, and biofilm cells were dislodged from the pegs by sonication for 30 min with a Branson 3510 bath sonicator. The biofilm cells in the recovery medium were serially diluted, and a drop dilution assay was performed to enumerate the viable cells. MBEC values were determined as the minimum concentration of antimicrobials that yielded a viable cell count at or lower than the 125 CFU/mL detection limit.

The subject of assay [13] is MRSA ON184. Nature of the assay: Checkerboard titration, FICI. Type of assay: cell-based, Staphylococcus aureus. As to conditions: EDTA + ethanol checkerboard. Here is the method:
as §1

The test system of assay [14] is C. albicans ON47. Nature of the assay: Checkerboard titration, FICI. Type of assay: cell-based, Candida albicans. Conditions: EDTA + ethanol checkerboard. Here is the method:
as §1

On to `CCO` [Ethanol, ethanol, reference compound], for which the “Inhibitory concentration in combination” value in [1] turned out to be 0.4 % w/v; in [3], 6.25 % w/v; in [4], 0.4 % w/v; in assay [5], 1.6 % w/v; in [6] it was 3.125 % w/v; in assay [7], 1.6 % w/v. Besides, the “Inhibitory concentration in combination” value in assay [8] stood at 0.4 % w/v; in assay [9], 3.125 % w/v; in assay [10], 0.4 % w/v; in [11] it was 3.125 % w/v; in assay [13], 0.4 % w/v; in [14], 0.4 % w/v. In assay [2], the “Eradication of preformed biofilms after 2 h of exposure” value is reported as “failed to eradicate”. Moreover, the “Concentration alone able to eradicate all established biofilms following 24 h of treatment” value in [12] is recorded as 5%.
